# Activity calls are given as the source filed them. The rule behind the calls is not given here.
# Key:
# 4T1 [1] = test: Antitumor activity against mouse 4T1 cells xenografted in Balb/c mouse assessed as TUNEL positive cells at 200 mg/kg administered topically over the tumor surface every two days for 14 days in the presence of cyanoacrylate by TUNEL staining analysis (reference value: 21.78%); format: functional; conditions: route top, time 14 day
# [2] = Toxicity in Balb/c mouse implanted with mouse 4T1 cells assessed as effect on body weight at 50 mg/kg administered intratumorally every four days for 14 days in the presence of liquid cyanoacrylate; format: organism-based; conditions: in vivo, other, 336 h, route it(Intratumoral), time 14 day
# MDA-MB-231 [3] = test: Induction of apoptosis in human MDA-MB-231 cells assessed as late apoptotic cells by measuring red fluorescence at 0.01 to 1 uM by PI staining based fluorescence microscopic analysis; format: functional, cell-based; conditions: dose 0.01-1 µM
# 4T1 [4] = test: Antitumor activity against mouse 4T1 cells implanted in Balb/c mouse assessed as TUNEL positive cells at 50 mg/kg, ip administered every two days for 14 days by TUNEL staining analysis (reference value: 6.55%); format: functional; conditions: time 14 day
# MDA-MB-231 [5] = test: Induction of ROS production in human MDA-MB-231 cells assessed as increase in fluorescence intensity at 1 uM incubated for 24 hrs by DCFH-DA staining based fluorescence analysis; format: functional, cell-based
# [6] = Drug metabolism in Balb/c mouse kidney implanted with mouse 4T1 cells assessed as 2-methyl hydroxylation of parent compound causing metabolite formation by LC-MS analysis; format: ADME, tissue-based
# [7] = Toxicity in Balb/c mouse xenografted with mouse 4T1 cells assessed as kidney lesions at 200 mg/kg administered topically over the tumor surface every two days for 14 days in the presence of cyanoacrylate by H&E staining based histopathological analysis; format: organism-based; conditions: in vivo, topical_or_ocular, 336 h, route top, time 14 day
# 4T1 [8] = test: Antitumor activity against mouse 4T1 cells implanted in Balb/c mouse assessed as TUNEL positive cells at 50 mg/kg administered intratumorally every four days for 14 days in the presence of liquid cyanoacrylate by TUNEL staining analysis; format: functional; conditions: route it(Intratumoral), time 14 day
# [9] = Acute toxicity in mouse assessed as death rate ratio at 476 mg/kg, ip measured over 14 days; format: organism-based; conditions: in vivo, 336 h, time 14 day
# [10] = Toxicity in Balb/c mouse implanted with mouse 4T1 cells assessed as kidney lesions at 50 mg/kg, ip administered every two days for 14 days by H&E staining based histopathological analysis; format: organism-based; conditions: in vivo, 336 h, time 14 day
# [11] = Acute toxicity in mouse assessed as death rate ratio at 300 mg/kg, ip measured over 14 days; format: organism-based; conditions: in vivo, 336 h, time 14 day
# MDA-MB-231 [12] = test: Induction of apoptosis in human MDA-MB-231 cells assessed as increase in cytoplasmic vacuoles at 1 uM incubated for 24 hrs by transmission electron microscopic analysis; format: functional, cell-based
# [13] = Toxicity in Balb/c mouse implanted with mouse 4T1 cells assessed as liver lesions at 50 mg/kg, ip administered every two days for 14 days by H&E staining based histopathological analysis; format: organism-based; conditions: in vivo, 336 h, time 14 day
# MDA-MB-231 [14] = test: Antiproliferative activity against human MDA-MB-231 cells assessed as inhibition of cell growth by MTT assay; format: functional, cell-based
# 4T1 [15] = test: Antitumor activity against mouse 4T1 cells xenografted in Balb/c mouse assessed as tumor growth inhibition at 200 mg/kg administered topically over the tumor surface every two days for 14 days in the presence of cyanoacrylate relative to control; format: functional; conditions: 4T1, 336 h, route top, time 14 day, read-out: TGI
# [16] = Toxicity in Balb/c mouse implanted with mouse 4T1 cells assessed as kidney lesions at 50 mg/kg administered intratumorally every four days for 14 days in the presence of liquid cyanoacrylate by H&E staining based histopathological analysis; format: organism-based; conditions: in vivo, other, 336 h, route it(Intratumoral), time 14 day
# 4T1 [17] = test: Antitumor activity aginst mouse 4T1 cells implanted in Balb/c mouse assessed as nuclei shrinkage at 50 mg/kg, ip administered every two days for 14 days; format: functional, organism-based; conditions: time 14.0 day
# [18] = Drug metabolism in Balb/c mouse kidney implanted with mouse 4T1 cells assessed as dechlorination of parent compound causing metabolite formation by LC-MS analysis; format: ADME, tissue-based
# MDA-MB-231 [19] = test: Induction of apoptosis in human MDA-MB-231 cells assessed as increase in p53 level at 100 nM incubated for 48 hrs; format: functional, cell-based
# 4T1 [20] = test: Antitumor activity against mouse 4T1 cells implanted in Balb/c mouse assessed as TUNEL positive cells at 50 mg/kg administered intratumorally every four days for 14 days by TUNEL staining analysis (reference value: 6.55%); format: functional; conditions: route it(Intratumoral), time 14 day
# 4T1 [21] = test: Antitumor activity against mouse 4T1 cells implanted in Balb/c mouse assessed as tumor growth inhibition at 50 mg/kg administered intratumorally every four days for 14 days in the presence of liquid cyanoacrylate relative to control; format: functional; conditions: 4T1, 336 h, route it(Intratumoral), time 14 day, read-out: TGI
# [22] = Toxicity in Balb/c mouse implanted with mouse 4T1 cells assessed as heart lesions at 50 mg/kg administered intratumorally every four days for 14 days in the presence of liquid cyanoacrylate by H&E staining based histopathological analysis; format: organism-based; conditions: in vivo, other, 336 h, route it(Intratumoral), time 14 day
# MDA-MB-231 [23] = test: Induction of apoptosis in human MDA-MB-231 cells assessed as decrease in Bcl-2 expression at 0.5 to 3 times of IC50 concentration by Western blot analysis; format: functional, cell-based
# [24] = Acute toxicity in mouse assessed as death rate ratio at 238 mg/kg, ip measured over 14 days; format: organism-based; conditions: in vivo, 336 h, time 14 day
# [25] = Toxicity in Balb/c mouse implanted with mouse 4T1 cells assessed as spleen lesions at 50 mg/kg administered intratumorally every four days for 14 days in the presence of liquid cyanoacrylate by H&E staining based histopathological analysis; format: organism-based; conditions: in vivo, other, 336 h, route it(Intratumoral), time 14 day
# MDA-MB-231 [26] = test: Induction of mitochondrial membrane potential loss in human MDA-MB-231 cells assessed as increase in green fluorescence intensity at 0.1 to 1 uM measured after 24 hrs byJC-1 staining based fluorescence microscopic analysis; format: functional, cell-based; conditions: dose 0.1-1 µM
# Mus musculus = test: Protection of Balb/c mouse spleen implanted with mouse 4T1 cells at 50 mg/kg administered intratumorally every four days for 14 days in the presence of liquid cyanoacrylate; format: functional, organism-based; conditions: route it(Intratumoral), time 14.0 day
# [27] = Toxicity in Balb/c mouse xenografted with mouse 4T1 cells assessed as spleen lesions at 200 mg/kg administered topically over the tumor surface every two days for 14 days in the presence of cyanoacrylate by H&E staining based histopathological analysis; format: organism-based; conditions: in vivo, topical_or_ocular, 336 h, route top, time 14 day
# [28] = Drug metabolism in Balb/c mouse tumor implanted with mouse 4T1 cells assessed as dechlorination of parent compound causing metabolite formation by LC-MS analysis; format: ADME, tissue-based, Neoplasm
# 4T1 [29] = test: Antitumor activity aginst mouse 4T1 cells implanted in Balb/c mouse assessed as nuclei disappearance at 50 mg/kg administered intratumorally every four days for 14 days; format: functional, organism-based; conditions: route it(Intratumoral), time 14.0 day
# [30] = Toxicity in Balb/c mouse implanted with mouse 4T1 cells assessed as heart lesions at 50 mg/kg, ip administered every two days for 14 days by H&E staining based histopathological analysis; format: organism-based; conditions: in vivo, 336 h, time 14 day
# MDA-MB-231 [31] = test: Induction of apoptosis in human MDA-MB-231 cells assessed as increase in caspase 9 expression at 1 uM incubated for 24 hrs by Western blot analysis; format: functional, cell-based
# MDA-MB-231 [32] = test: Induction of apoptosis in human MDA-MB-231 cells assessed as increase in pro-caspase 3 level at 100 nM incubated for 48 hrs; format: functional, cell-based
# MDA-MB-231 [33] = test: Induction of apoptosis in human MDA-MB-231 cells assessed as increase in HTRA2/omi level at 100 nM incubated for 48 hrs; format: functional, cell-based
smiles,measurement,setting,value
Cc1[nH]c2ccccc2c1C1=C(Cl)C(=O)C(Cl)=C(N2CCOCC2)C1=O,Activity,4T1 [1],64.71%
same,Activity,[2],Non-Toxic
same,Activity,MDA-MB-231 [3],Active
same,Activity,4T1 [4],19.64%
same,Activity,MDA-MB-231 [5],Active
same,Drug metabolism,[6],Metabolite_Detected
same,Activity,[7],Non-Toxic
same,Activity,4T1 [8],49.52%
same,Ratio,[9],0.66
same,Activity,[10],Non-Toxic
same,Ratio,[11],0.33
same,Activity,MDA-MB-231 [12],Active
same,Activity,[13],Non-Toxic
same,IC50,MDA-MB-231 [14],70 nM
same,inhibition in vivo at 200 mg/kg,4T1 [15],38%
same,Activity,[16],Non-Toxic
same,Activity,4T1 [17],Active
same,Drug metabolism,[18],Metabolite_Detected
same,Activity,MDA-MB-231 [19],Active
same,Activity,4T1 [20],91.48%
same,inhibition in vivo at 50 mg/kg,4T1 [21],49.8%
same,Activity,[22],Non-Toxic
same,Activity,MDA-MB-231 [23],Active
same,Ratio,[24],0.17
same,Activity,[25],Non-Toxic
same,Activity,MDA-MB-231 [26],Active
same,Activity,Mus musculus,Active
same,Activity,[27],Non-Toxic
same,Drug metabolism,[28],Metabolite_Detected
same,Activity,4T1 [29],Active
same,Activity,[30],Non-Toxic
same,Activity,MDA-MB-231 [31],Active
same,Activity,MDA-MB-231 [32],Active
same,Activity,MDA-MB-231 [33],Active

# Source: ChEMBL document CHEMBL5137015, “Design, synthesis, and evaluation of a novel series of mono-indolylbenzoquinones derivatives for the potential treatment of breast cancer” (Eur J Med Chem, 2022)
